Target: hPAD4 enzyme (Homo sapiens (Human), UniProt Q9UM07)
Assay: RFMS2 assay (RapidFire mass spectrometry, TSTGGRQGSHH peptide substrate)
Format: biochemical
Conditions: 35 nM recombinant human PAD4, 500 μM TSTGGRQGSHH peptide, 30 minutes at room temperature; read-out: RFMS 2 IC50
Outline: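 IC50 derived from RapidFire LC-MS/MS (positive ESI MRM) of substrate versus product after a 30 min room-temperature reaction stopped with 10% formic acid. Reaction contained 35 nM human PAD4, 500 μM peptide, 2 mM CaCl2, 5 mM DTT at pH 7.4, and compounds diluted 3-fold from 20 μM.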

Chain of hPAD4 enzyme (Q9UM07 whole entry): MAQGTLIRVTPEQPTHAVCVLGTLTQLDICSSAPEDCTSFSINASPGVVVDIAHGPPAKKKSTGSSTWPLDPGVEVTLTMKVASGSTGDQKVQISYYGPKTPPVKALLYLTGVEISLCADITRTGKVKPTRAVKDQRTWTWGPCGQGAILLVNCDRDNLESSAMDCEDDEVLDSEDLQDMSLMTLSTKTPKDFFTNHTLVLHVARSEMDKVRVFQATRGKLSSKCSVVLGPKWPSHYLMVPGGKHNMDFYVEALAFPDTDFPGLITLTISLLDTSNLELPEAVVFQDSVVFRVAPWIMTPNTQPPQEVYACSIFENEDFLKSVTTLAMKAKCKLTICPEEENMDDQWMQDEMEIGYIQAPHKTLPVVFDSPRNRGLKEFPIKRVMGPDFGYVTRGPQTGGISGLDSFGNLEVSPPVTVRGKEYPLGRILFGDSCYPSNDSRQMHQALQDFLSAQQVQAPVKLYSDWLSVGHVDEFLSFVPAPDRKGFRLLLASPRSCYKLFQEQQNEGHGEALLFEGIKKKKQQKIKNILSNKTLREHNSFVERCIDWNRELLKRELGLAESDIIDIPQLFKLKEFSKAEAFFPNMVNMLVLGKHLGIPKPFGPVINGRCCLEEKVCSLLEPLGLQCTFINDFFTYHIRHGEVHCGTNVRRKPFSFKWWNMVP

Row | IC50 | Structure (SMILES)
1 | 101 to 500 nM | COc1cccc2cc(-c3nc4cc5c(cc4n3C)CCN(C[C@H](N)CF)C5=O)n(Cc3nc(C)no3)c12 [Example 129, (S)-6-(2-amino-3-fluoropropyl)-2-(7-methoxy-1-((3-methyl-1,2,4-oxadiazol-5-yl)methyl)-1H-indol-2-yl)-1-methyl-1,6,7,8-tetrahydro-5H-imidazo[4,5-g]isoquinolin-5-one]
2 | 101 to 500 nM | COc1cccc2cc(-c3nc4cc5c(cc4n3C)CCN(C[C@H](N)CF)C5=O)n(C[C@H]3CCCO3)c12 [Example 132, 6-((S)-2-amino-3-fluoropropyl)-2-(7-methoxy-1-(((R)-tetrahydrofuran-2-yl)methyl)-1H-indol-2-yl)-1-methyl-1,6,7,8-tetrahydro-5H-imidazo[4,5-g]isoquinolin-5-one]
3 | 101 to 500 nM | COc1cccc2cc(-c3nc4cc5c(cc4n3C)CCN(C[C@H](N)CF)C5=O)n(C[C@@H]3CCCO3)c12 [Example 133, 6-((S)-2-amino-3-fluoropropyl)-2-(7-methoxy-1-(((S)-tetrahydrofuran-2-yl)methyl)-1H-indol-2-yl)-1-methyl-1,6,7,8-tetrahydro-5H-imidazo[4,5-g]isoquinolin-5-one]
4 | 101 to 500 nM | COc1cccc2cc(-c3nc4cc5c(cc4n3C)CCN(C[C@H](N)CF)C5=O)n(Cc3cc(Cl)no3)c12 [Example 136, (S)-6-(2-amino-3-fluoropropyl)-2-(1-((3-chloroisoxazol-5-yl)methyl)-7-methoxy-1H-indol-2-yl)-1-methyl-1,6,7,8-tetrahydro-5H-imidazo[4,5-g]isoquinolin-5-one]
5 | 101 to 500 nM | COc1cccc2cc(-c3nc4cc5c(cc4n3C)CCN(C[C@H](N)CF)C5=O)n(Cc3cc(C#N)no3)c12 [Example 137, (S)-5-((2-(6-(2-amino-3-fluoropropyl)-1-methyl-5-oxo-5,6,7,8-tetrahydro-1H-imidazo[4,5-g]isoquinolin-2-yl)-7-methoxy-1H-indol-1-yl)methyl)isoxazole-3-carbonitrile]
6 | 101 to 500 nM | COc1cccc2cc(-c3nc4cc5c(cc4n3C)CCN(C[C@H](N)CF)C5=O)n(Cc3ccoc3)c12 [Example 138, (S)-6-(2-amino-3-fluoropropyl)-2-(1-(furan-3-ylmethyl)-7-methoxy-1H-indol-2-yl)-1-methyl-1,6,7,8-tetrahydro-5H-imidazo[4,5-g]isoquinolin-5-one]
7 | 101 to 500 nM | COc1cccc2cc(-c3nc4cc5c(cc4n3C)CCN(C[C@H](N)CF)C5=O)n(Cc3oncc3C)c12 [Example 139, (S)-6-(2-amino-3-fluoropropyl)-2-(7-methoxy-1-((4-methylisoxazol-5-yl)methyl)-1H-indol-2-yl)-1-methyl-1,6,7,8-tetrahydro-5H-imidazo[4,5-g]isoquinolin-5-one]
8 | 101 to 500 nM | COc1cccc2cc(-c3nc4cc5c(cc4n3C)CCN(C[C@H](N)CF)C5=O)n(Cc3ccco3)c12 [Example 141, (S)-6-(2-amino-3-fluoropropyl)-2-(1-(furan-2-ylmethyl)-7-methoxy-1H-indol-2-yl)-1-methyl-1,6,7,8-tetrahydro-5H-imidazo[4,5-g]isoquinolin-5-one]
9 | 101 to 500 nM | Cn1c(-c2cc3cccc(OCC4COC4)c3n2CC2CC2)nc2cc3c(cc21)CCN(C[C@H](N)CF)C3=O [Example 149, (S)-6-(2-amino-3-fluoropropyl)-2-(1-(cyclopropylmethyl)-7-(oxetan-3-ylmethoxy)-1H-indol-2-yl)-1-methyl-1,6,7,8-tetrahydro-5H-imidazo[4,5-g]isoquinolin-5-one]

The remaining lines, values behind:

Row | Structure (SMILES) | IC50
10 | COc1cccc2cc(-c3nc4cc5c(cc4n3C)CCN(C[C@H](N)CF)C5=O)n(Cc3cccnn3)c12 [Example 126, (S)-6-(2-amino-3-fluoropropyl)-2-(7-methoxy-1-(pyridazin-3-ylmethyl)-1H-indol-2-yl)-1-methyl-1,6,7,8-tetrahydro-5H-imidazo[4,5-g]isoquinolin-5-one] | 101 to 500 nM
11 | COc1cccc2cc(-c3nc4cc5c(cc4n3C)CCN(C[C@H](N)CF)C5=O)n(Cc3cnccn3)c12 [Example 128, (S)-6-(2-amino-3-fluoropropyl)-2-(7-methoxy-1-(pyrazin-2-ylmethyl)-1H-indol-2-yl)-1-methyl-1,6,7,8-tetrahydro-5H-imidazo[4,5-g]isoquinolin-5-one] | 101 to 500 nM
12 | CCn1c(-c2nc3cc4c(cc3n2C)CCN(C[C@H](N)CF)C4=O)cc2ccccc21 [Example 134, (S)-6-(2-amino-3-fluoropropyl)-2-(1-ethyl-1H-indol-2-yl)-1-methyl-1,6,7,8-tetrahydro-5H-imidazo[4,5-g]isoquinolin-5-one] | > 1000 nM
13 | COc1cccc2cc(-c3nc4cc5c(cc4n3C)CCN(C[C@H](N)CF)C5=O)n(Cc3ccc(C#N)o3)c12 [Example 140, (S)-5-((2-(6-(2-amino-3-fluoropropyl)-1-methyl-5-oxo-5,6,7,8-tetrahydro-1H-imidazo[4,5-g]isoquinolin-2-yl)-7-methoxy-1H-indol-1-yl)methyl)furan-2-carbonitrile] | 11 to 100 nM
14 | COc1cccc2cc(-c3nc4cc5c(cc4n3C)CCN(C[C@H](N)CF)C5=O)n(Cc3ocnc3C)c12 [Example 142, (S)-6-(2-amino-3-fluoropropyl)-2-(7-methoxy-1-((4-methyloxazol-5-yl)methyl)-1H-indol-2-yl)-1-methyl-1,6,7,8-tetrahydro-5H-imidazo[4,5-g]isoquinolin-5-one] | 101 to 500 nM
15 | COc1cccc2cc(-c3nc4cc5c(cc4n3C)CCN(C[C@H](N)CF)C5=O)n(Cc3ccc(C)o3)c12 [Example 143, (S)-6-(2-amino-3-fluoropropyl)-2-(7-methoxy-1-((5-methylfuran-2-yl)methyl)-1H-indol-2-yl)-1-methyl-1,6,7,8-tetrahydro-5H-imidazo[4,5-g]isoquinolin-5-one] | 101 to 500 nM
16 | COc1cccc2cc(-c3nc4cc5c(cc4n3C)CCN(C[C@H](N)CF)C5=O)n(Cc3ccnnc3)c12 [Example 144, (S)-6-(2-amino-3-fluoropropyl)-2-(7-methoxy-1-(pyridazin-4-ylmethyl)-1H-indol-2-yl)-1-methyl-1,6,7,8-tetrahydro-5H-imidazo[4,5-g]isoquinolin-5-one] | 101 to 500 nM
17 | COc1cccc2cc(-c3nc4cc5c(cc4n3C)CCN(C[C@H](N)CF)C5=O)n(Cc3coc(C)n3)c12 [Example 145, (S)-6-(2-amino-3-fluoropropyl)-2-(7-methoxy-1-((2-methyloxazol-4-yl)methyl)-1H-indol-2-yl)-1-methyl-1,6,7,8-tetrahydro-5H-imidazo[4,5-g]isoquinolin-5-one] | 101 to 500 nM
18 | COC1(Cn2c(-c3nc4cc5c(cc4n3C)CCN(C[C@H](N)CF)C5=O)cc3ccccc32)CC1 [Example 147, (S)-6-(2-amino-3-fluoropropyl)-2-(1-((1-methoxycyclopropyl)methyl)-1H-indol-2-yl)-1-methyl-1,6,7,8-tetrahydro-5H-imidazo[4,5-g]isoquinolin-5-one] | > 1000 nM
19 | Cn1c(-c2cc3cccc(C#N)c3n2Cc2ccno2)nc2cc3c(cc21)CCN(C[C@H](N)CF)C3=O [Example 148, (S)-2-(6-(2-amino-3-fluoropropyl)-1-methyl-5-oxo-5,6,7,8-tetrahydro-1H-imidazo[4,5-g]isoquinolin-2-yl)-1-(isoxazol-5-ylmethyl)-1H-indole-7-carbonitrile] | 501 to 1000 nM
20 | Cn1c(-c2cc3cccc(OCC4CNC(=O)C4)c3n2CC2CC2)nc2cc3c(cc21)CCN(C[C@H](N)CF)C3=O (some centres unmarked) [Example 151] | 11 to 100 nM

Source: patent US20250346592A1 (Celgene Corporation, priority 2022, published 2025)
